SMILES strings stand for the structures. Like-named read-outs stand apart in the source and are kept apart here.

Series [1] deals with T1, CK2α (Homo sapiens, UniProt P68400). As to the kind of experiment: in vitro CK2 kinase assay (inhibition of catalytic activity). In kind it is biochemical. How it is done: (§1) Lineweaver-Burk inhibition plots of CK2α in the presence of different concentrations of Quinobene (0; 0.1; 0.2; 0.4; 0.8 µM). • (A) variable concentrations of ATP with Peptide] = 500 µM. (B) variable concentrations of Peptide with [ATP] = 200 µM. […] Lineweaver-Burk inhibition plots of CK2α in the presence of different concentrations of CCB8 (0; 1.1; 2.2 µM for ATP competition assay; 0; 1.1 µM for peptide competition assay). (A) variable concentrations of ATP with [Peptide] = 166 µM. (B) variable concentrations of Peptide with [ATP] = 25 µM. […] A549 cells were treated for 48 hours with increasing concentrations of CCB8 (σ) or Naphtobene (ν). Cell viability was evaluated with the Cell Titer Glo kit (Promega).
4,4'-bis(8-hydroxy-5-sulfo-7-quinolineazo)stilbene-2,2'-disulfonic acid (Quinobene) or 4,4'-[(1-hydroxy-4-sulfo-2-naphtyl)azo] 2,2'-stilbenedisulfonic acid (Naphtobene) were obtained from the National Cancer Institute and screened for CK2 inhibitors using an in vitro CK2 kinase assay (Filhol et al., 1991).
CCB8 was tested in the in vitro CK2 assay.

Another series relates to A549 cells. As to the kind of experiment: Cancer cell viability (Cell Titer Glo kit). In kind it is cell-based. Conditions: increasing concentrations, 48 hours. How it is done:
as §1
A549 cells were treated with increasing concentrations of TBB 4,5,6,7-TetraBromoBenzotriazole (Calbiochem®) or Quinobene for 48 hours and the cell viability was monitored.
Background: In ATP-based viability assays light output follows the ATP content of the culture.

For series [2], the system named is non-small cell lung cancer cells (A549). As to the kind of experiment: Confocal microscopic analysis of cell uptake. The format is cell-based. Conditions: 100 µM, 48 hours, confocal microscopy.
In series [3] the target is T1, CK2α. Briefly: Lineweaver-Burk inhibition plots (ATP and peptide competition). The format is biochemical. Conditions: for mode of inhibition: with respect to ATP or the phosphoacceptor peptide. How it is done: as §1
The mark [4] stands for this setting: inhibition of CK2 catalytic activity, dose-dependent (Figure 2), read-out: half-maximal effective concentration.
Where [5] appears, read: inhibition of the catalytic activity of recombinant CK2α, read-out: IC50.

T1 sequence (P68400 whole entry): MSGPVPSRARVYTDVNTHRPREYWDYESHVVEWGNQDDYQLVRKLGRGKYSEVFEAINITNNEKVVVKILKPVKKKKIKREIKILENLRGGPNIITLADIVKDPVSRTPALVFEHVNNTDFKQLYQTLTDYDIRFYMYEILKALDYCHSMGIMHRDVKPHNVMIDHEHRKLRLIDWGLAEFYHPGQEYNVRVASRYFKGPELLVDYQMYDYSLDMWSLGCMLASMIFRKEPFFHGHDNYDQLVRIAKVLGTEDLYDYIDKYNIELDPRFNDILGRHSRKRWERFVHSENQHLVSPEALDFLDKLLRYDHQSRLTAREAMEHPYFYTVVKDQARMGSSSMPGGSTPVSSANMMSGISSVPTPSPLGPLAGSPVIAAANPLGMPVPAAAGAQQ

In the case of `O=S(=O)(O)c1cc(/N=N/c2cc(S(=O)(=O)O)c3ccccc3c2O)ccc1/C=C/c1ccc(/N=N/c2cc(S(=O)(=O)O)c3ccccc3c2O)cc1S(=O)(=O)O` [Naphtobene, 4,4'-[(1-hydroxy-4-sulfo-2-naphtyl)azo] 2,2'-stilbenedisulfonic acid], the IC50 on CK2α [1] (setting [4]) and at CK2α [1] (setting [5]) was 300 nM each time. Also, in the series on A549 cells, the “cell viability / proapoptotic efficacy” value is given as “potency correlates with its proapoptotic efficacy”. The cell permeability entry in series [2] is “cell permeable”.
For `O=S(=O)(O)c1cc(/N=N/c2cc(S(=O)(=O)O)c3cccnc3c2O)ccc1/C=C/c1ccc(/N=N/c2cc(S(=O)(=O)O)c3cccnc3c2O)cc1S(=O)(=O)O` [Quinobene, 4,4'-bis(8-hydroxy-5-sulfo-7-quinolineazo)stilbene-2,2'-disulfonic acid], the IC50 at CK2α [1] (setting [4]) and on CK2α [1] (setting [5]) was 130 nM in each case. Besides, the “cell viability / proapoptotic efficacy” value with A549 cells is given as “potency correlates with its proapoptotic efficacy”. Further, the mode of inhibition entry on CK2α [3] was “non-competitive inhibitor”.
The Ki is the equilibrium dissociation constant of an inhibitor or competing ligand from its target. Regarding `Nc1ccc(C(=O)O)cc1N=Nc1ccc(C=Cc2ccc(N=Nc3cc(C(=O)O)ccc3N)cc2S(=O)(=O)O)c(S(=O)(=O)O)c1` [CCB8], the IC50 on CK2α [1] (inhibition of the catalytic activity of recombinant CK2α) was 600 nM. Besides, the “cell viability / proapoptotic efficacy” value in the series with A549 cells is listed as “potency correlates with its proapoptotic efficacy”. Besides, at CK2α [3] (deduced from Lineweaver-Burk graph (Figure 5), read-out: Ki constant), the Ki is 85 nM. Further, the mode of inhibition result on CK2α [3] is on record as “non-competitive inhibitor”.
